Measured values from patent publication US4113946A, “Δ^2,3 -1,4-Morpholine-2-carboxylic acid derivatives as antibacterial agents” (Bristol-Myers Company, priority 1977, dated 1978).
≈ marks a conversion by molar mass, not a printed value. Read-outs that look alike come from different tables or passages of the source.

How the values were obtained:
Assay type in all cases: cell-based
[1] = system: S. aureus meth.-resist; A15097; assay: M.I.C. by tube dilution, S. aureus meth.-resist A15097; details: Staphylococcus aureus, at 10^-3 dil'n, overnight 37° C.
K. pneumoniae A15130 = assay: M.I.C. by tube dilution, K. pneumoniae A15130; details: Klebsiella pneumoniae
S. aureus Smith A9537 = assay: M.I.C. by tube dilution, S. aureus Smith A9537; details: for MIC: Staphylococcus aureus
Ps. aeruginosa A9843A = assay: microbe, parasite or virus in culture; details: Pseudomonas aeruginosa
Pr. mirabilis A9900 = assay: M.I.C. by tube dilution, Pr. mirabilis A9900; details: Proteus mirabilis
Sal. enteritidis A9531 = assay: M.I.C. by tube dilution, Sal. enteritidis A9531; details: for MIC: Salmonella enterica, ENTERITIDIS
Str. pyogenes A9604 = assay: M.I.C. by tube dilution, Str. pyogenes A9604; details: Streptococcus pyogenes
K. pneumoniae A9977 = assay: M.I.C. by tube dilution, K. pneumoniae A9977; details: Klebsiella pneumoniae
S. aureus BX1633-2 A9606 = assay: M.I.C. by tube dilution, S. aureus BX1633-2 A9606; details: overnight 37° C.; for MIC: Staphylococcus aureus
Pr. morganii A15153 = assay: M.I.C. by tube dilution, Pr. morganii A15153; details: Morganella morganii
Ser. marcescens A20019 = assay: M.I.C. by tube dilution, Ser. marcescens A20019; details: Serratia marcescens
E. coli Juhl A15119 = assay: M.I.C. by tube dilution, E. coli Juhl A15119; details: for MIC: Escherichia coli, JUHLA15119
D. pneumoniae A9585 = assay: M.I.C. by tube dilution, D. pneumoniae A9585; details: for MIC: Streptococcus pneumoniae, A9585
E. coli A9675 = assay: M.I.C. by tube dilution, E. coli A9675; details: Escherichia coli
Ent. cloacae A9659 = assay: M.I.C. by tube dilution, Ent. cloacae A9659; details: Enterobacter cloacae, A9659, overnight 37° C.
Ent. cloacae A9657 = assay: M.I.C. by tube dilution, Ent. cloacae A9657; details: Enterobacter cloacae, A9657, overnight 37° C.; read-out: M.I.C.
[2] = at 10^-4 dilution, overnight 37° C., read-out: M.I.C.
[3] = +5% serum, 50% Nutrient Broth - 45% Antibiotic Assay Broth, overnight 37° C., read-out: M.I.C.
[4] = BX16332A9606, at 10^-3 dil'n, read-out: M.I.C.
[5] = BX16332A9606, at 10^-2 dil'n, read-out: M.I.C.
[6] = Table 9, compound of Ex. No., dilution not given
[7] = SMITHA9537, Table 9, compound of Ex. No., serum and dilution not given, read-out: M.I.C. S. aureus A9537
[8] = Table 9, compound of Ex. No., dilution not given, read-out: M.I.C. Sal. enteritidis A9531
[9] = Table 9, compound of Ex. No., dilution not given, read-out: M.I.C. E. coli A15119
[10] = Table 9, compound of Ex. No., serum not given, read-out: M.I.C. D. pneumoniae A9585

| Structure (SMILES) | MIC (S. aureus Smith A9537; [7]) | MIC (Sal. enteritidis A9531; [8]) | MIC (E. coli Juhl A15119; [9]) | MIC (D. pneumoniae A9585; [10]) | other results |
| --- | --- | --- | --- | --- | --- |
| O=C(COc1ccccc1)N[C@@H]1C(=O)N2C(C(=O)O)=COC[C@H]12 (relative stereo) [BC-L2, potassium 7 β-phenoxyacetamido-Δ^3 -O-2-isocephem-4-carboxylate] |  |  |  |  | MIC [1]: > 125 µg/mL; MIC (K. pneumoniae A15130): > 125 µg/mL; MIC (S. aureus Smith A9537; SMITHA9537, +50% serum, at 10^-4 dilution, overnight 37° C.): 1 µg/mL; MIC (S. aureus Smith A9537; SMITHA9537, at 10^-4 dilution, overnight 37° C., read-out: M.I.C.): 1.3 µg/mL; MIC (Ps. aeruginosa A9843A): > 125 µg/mL; MIC (Pr. mirabilis A9900; [2]): 63 µg/mL; MIC (Sal. enteritidis A9531): 16 µg/mL; MIC (Str. pyogenes A9604; [3]): 0.6 µg/mL; MIC (K. pneumoniae A9977): 32 µg/mL; MIC (S. aureus BX1633-2 A9606; BX16332A9606, at 10^-2 dil'n): > 125 µg/mL; MIC (S. aureus BX1633-2 A9606; [4]): 2.5 µg/mL; MIC (Pr. morganii A15153): > 125 µg/mL; MIC (Ser. marcescens A20019): > 125 µg/mL; MIC (E. coli Juhl A15119; [2]): 63 µg/mL; MIC (D. pneumoniae A9585; [3]): 0.6 µg/mL; MIC (E. coli A9675): > 125 µg/mL |
| N[C@@H](C(=O)N[C@@H]1C(=O)N2C(C(=O)O)=COC[C@H]12)c1ccccc1 [BC-L6, 7β-(D-α-aminophenylacetamido)-Δ^3 -O-2-isocephem-4-carboxylic acid] |  |  |  |  | MIC ([1]; read-out: M.I.C.): > 500 µg/mL; MIC (K. pneumoniae A15130): 125 µg/mL (≈ 394 µM); MIC (S. aureus Smith A9537; SMITHA9537, +50% serum, at 10^-4 dilution, overnight 37° C., read-out: M.I.C.): 250 µg/mL (≈ 788 µM); MIC (S. aureus Smith A9537; SMITHA9537, at 10^-4 dilution, overnight 37° C.): 32 µg/mL (≈ 101 µM); MIC (Ps. aeruginosa A9843A): > 500 µg/mL; MIC (Pr. mirabilis A9900): 125 µg/mL (≈ 394 µM); MIC (Sal. enteritidis A9531): 32 µg/mL (≈ 101 µM); MIC (Str. pyogenes A9604): 16 µg/mL (≈ 50.4 µM); MIC (K. pneumoniae A9977; [2]): 63 µg/mL (≈ 199 µM); MIC (S. aureus BX1633-2 A9606; [5]): 500 µg/mL (≈ 1580 µM); MIC (S. aureus BX1633-2 A9606; BX16332A9606, at 10^-3 dil'n): 125 µg/mL (≈ 394 µM); MIC (Pr. morganii A15153; [2]): > 500 µg/mL; MIC (Ser. marcescens A20019; [2]): > 500 µg/mL; MIC (E. coli Juhl A15119): 125 µg/mL (≈ 394 µM); MIC (D. pneumoniae A9585): 16 µg/mL (≈ 50.4 µM); MIC (E. coli A9675; [2]): 250 µg/mL (≈ 788 µM) |
| CC1=C(C(=O)O)N2C(=O)C(NC(=O)Cn3ncnn3)C2CO1 (stereo not drawn) [Example 37, 7β-[2-(2H)-tetrazolylacetamido]-3-methyl-Δ^3-0-2-isocephem-4-carboxylic acid] |  |  |  |  | M.I.C. S. aureus A9537 (S. aureus Smith A9537; Table 9, compound of Ex. No., serum and dilution not given): > 125 µg/mL; M.I.C. Sal. enteritidis A9531 (Sal. enteritidis A9531; [6]): > 125 µg/mL; M.I.C. E. coli A15119 (E. coli Juhl A15119; [6]): > 125 µg/mL; M.I.C. D. pneumoniae A9585 (D. pneumoniae A9585; Table 9, compound of Ex. No., serum not given): 125 µg/mL |
| CC1=C(C(=O)O)N2C(=O)[C@@H](NC(=O)Cc3ccccc3)[C@H]2CO1 (relative stereo) [Example 32, 7β-Phenylacetamido-3-methyl-Δ^3-0-2-isocephem-4-carboxylic acid] | 1 µg/mL (≈ 3.16 µM) | 4 µg/mL (≈ 12.6 µM) | 125 µg/mL (≈ 395 µM) | 0.5 µg/mL (≈ 1.58 µM) |  |
| CC1=C(C(=O)O)N2C(=O)[C@@H](NC(=O)[C@H](N)c3ccccc3)[C@H]2SC1 [Cephalexin, cephalexin, reference compound] |  |  |  |  | MIC (Ent. cloacae A9659): 125 µg/mL (≈ 360 µM); MIC ([1]; read-out: M.I.C.): 63 µg/mL (≈ 181 µM); MIC (Sal. enteritidis A9531; [2]): 1 µg/mL (≈ 2.88 µM); MIC (S. aureus BX1633-2 A9606; [5]): 4 µg/mL (≈ 11.5 µM); MIC (S. aureus BX1633-2 A9606; [4]): 4 µg/mL (≈ 11.5 µM); M.I.C. (S. aureus BX1633-2 A9606; at 10^-2 dil'n): 8 meg./ml.; M.I.C. (S. aureus BX1633-2 A9606; at 10^-3 dil'n): 2 meg./ml.; MIC (E. coli A9675): 32 µg/mL (≈ 92.1 µM); MIC (Ent. cloacae A9657): 2 µg/mL (≈ 5.76 µM) |
| CC1=C(C(=O)O)N2C(=O)[C@@H](NC(=O)C(NC(=O)NC(=O)c3ccccc3)c3ccccc3)[C@H]2CO1 (stereo partly drawn) [Example 25, 7β-(α-Benzoylureidophenylacetamido)-3-methyl-Δ^3 -O-2-isocephem-4-carboxylic acid] | 0.6 µg/mL (≈ 1.25 µM) | 8 µg/mL (≈ 16.7 µM) | 63 µg/mL (≈ 132 µM) | 0.3 µg/mL (≈ 0.627 µM) |  |
| CC1=C(C(=O)O)N2C(=O)[C@@H](NC(=O)C(C(=O)O)c3ccccc3)[C@H]2CO1 (stereo partly drawn) [Example 34, 7β-[α-carboxy-α-phenylacetamido]-3-methyl-Δ^3-0-2-isocephem-4-carboxylic acid] | 16 µg/mL (≈ 44.4 µM) | 32 µg/mL (≈ 88.8 µM) | 125 µg/mL (≈ 347 µM) | 4 µg/mL (≈ 11.1 µM) |  |
| CC1=C(C(=O)O)N2C(=O)[C@@H](NC(=O)Cc3cccs3)[C@H]2CO1 (relative stereo) [Example 33, 7β-(2-Thienylacetamido)-3-methyl-Δ^3-0-2-isocephem-4-carboxylic acid] | 1 µg/mL (≈ 3.1 µM) | 2 µg/mL (≈ 6.2 µM) | 32 µg/mL (≈ 99.3 µM) | 0.25 µg/mL (≈ 0.776 µM) |  |
| CC1=C(C(=O)O)N2C(=O)[C@@H](NC(=O)Cc3ccccc3O)[C@H]2CO1 (relative stereo) [Example 35, 7β-(o-Hydroxyphenylacetamido)-3-methyl-Δ^3-0-2-isocephem-4-carboxylic acid] | 0.5 µg/mL (≈ 1.5 µM) | > 125 µg/mL | > 125 µg/mL | 0.25 µg/mL (≈ 0.752 µM) |  |
| COc1cccc(OC)c1C(=O)N[C@@H]1C(=O)N2C(C(=O)O)=C(C)OC[C@H]12 (relative stereo) [Example 26, 7β-(2,6-Dimethoxybenzamido)-3-methyl-Δ^3 -O-2-isocephem-4-carboxylic acid] | > 125 µg/mL | 32 µg/mL (≈ 88.3 µM) | > 125 µg/mL | 32 µg/mL (≈ 88.3 µM) |  |
| CCOC(=O)NC1C(=O)N2C(C(=O)O)=C(C)OCC12 (stereo not drawn) [Example 38, 7β-(Ethoxycarboxamido)-3-methyl-Δ^3-0-2-isocephem-4-carboxylic acid] | 125 µg/mL (≈ 463 µM) | > 125 µg/mL | > 125 µg/mL | 32 µg/mL (≈ 118 µM) |  |
| CC1=C(C(=O)O)N2C(=O)[C@@H](NC(=O)CC#N)[C@H]2CO1 (relative stereo) [Example 36, 7β-[Cyanoacetamido]-3-methyl-Δ^3-0-2-isocephem-4-carboxylicacid] | 4 µg/mL (≈ 15.1 µM) | 125 µg/mL (≈ 471 µM) | 125 µg/mL (≈ 471 µM) | 0.5 µg/mL (≈ 1.89 µM) |  |
| CC1=C(C(=O)O)N2C(=O)[C@@H](NC(=O)Cc3ccccc3CN)[C@H]2CO1 (relative stereo) [Example 24, 7β-(2-Aminomethylphenylacetamido)-3-methyl-Δ^3 -O-2-isocephem-4-carboxylic acid] | 0.6 µg/mL (≈ 1.74 µM) | > 2.5 µg/mL | 16 µg/mL (≈ 46.3 µM) | 0.08 µg/mL (≈ 0.232 µM) |  |
| CC1=C(C(=O)O)N2C(=O)[C@@H](NC(=O)NCOc3ccccc3)[C@H]2CO1 (relative stereo) [Example 31] | 32 µg/mL (≈ 92.1 µM) | > 125 µg/mL | > 125 µg/mL | 16 µg/mL (≈ 46.1 µM) |  |
| CC1=C(C(=O)O)N2C(=O)[C@@H](NC(=O)c3c(-c4ccccc4Cl)noc3C)[C@H]2CO1 (relative stereo) [Example 39, 7β-[3-(o-chlorophenyl)-5-methyl-isoxazol-4-ylcarboxamido]-3-methyl-Δ^3-0-2-isocephem-4-carboxylic acid] | > 8 µg/mL | > 125 µg/mL | > 125 µg/mL | 8 µg/mL (≈ 19.1 µM) |  |
| CC1=C(C(=O)O)N2C(=O)[C@@H](NC(=O)CNC(=N)Cc3ccccc3)[C@H]2CO1 (relative stereo) [Example 28, 7β-[N-(Phenylacetimidoyl)aminoacetamido]-3-methyl-Δ^3 -O-2-isocephem-4-carboxylic acid] | 4 µg/mL (≈ 10.7 µM) | 125 µg/mL (≈ 336 µM) | > 125 µg/mL | 0.5 µg/mL (≈ 1.34 µM) |  |
| CCCCC(=O)NC1C(=O)N2C(C(=O)O)=C(C)OCC12 (stereo not drawn) [Example 29, 7β-Valeramido-3-methyl-Δ^3 -O-2-isocephem-4-carboxylic acid] | 125 µg/mL (≈ 443 µM) | > 125 µg/mL | > 125 µg/mL | 125 µg/mL (≈ 443 µM) |  |
| CC1=C(C(=O)O)N2C(=O)[C@@H](NC(=O)[C@H](O)c3ccccc3)[C@H]2CO1 [Example 27, 7β-(D-α-Hydroxyphenylacetamido)-3-methyl-Δ^3 -O-2-isocephem-4-carboxylic acid] | 2 µg/mL (≈ 6.02 µM) | 8 µg/mL (≈ 24.1 µM) | 16 µg/mL (≈ 48.1 µM) | 1 µg/mL (≈ 3.01 µM) |  |
